According to US5358947A, “Angiotensin II receptor blocking 2,3-substituted pyrazolo[1,5-a]-1,3,5-triazin-4(3H)-ones” (American Cyanamid Company, priority 1993, dated 1994):
Where “and” joins values, the source holds several entries; their conditions need not be identical. Equal entries are not always repeated.

Tested on: ANGIOTENSIN II (AII) VASOPRESSOR RESPONSE
Assay: AII Challenge: angiotensin II (AII) vasopressor response in conscious rats
Type: in vivo
Parameters: Response After AII / Change / Average Change: unit not given here
Settings: 10 mg/kg i.v.; for Change / Response After AII / Control Before AII: individual rat; for Control Before AII: in mmHg (unit assumed); for % Inhibition / Average Change: n = 2
How it was run: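 Conscious male Okamoto-Aoki SHR (16-20 weeks, ~330 g), aorta/vena cava cannulated, challenged with AII 0.05 and 0.1 ug/kg i.v. before and at 30-300 min after compound dosed i.v., i.p. or orally. Systolic pressure rise expressed relative to each rat's predose response (100%).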

[1] = AII 0.05 mcg/kg, 30 min post dose
[2] = AII 0.05 mcg/kg, 30 min post dose, listed as Ex. 11
[3] = AII 0.05 mcg/kg, 60 min post dose, listed as Ex. 11
[4] = AII 0.05 mcg/kg, 60 min post dose
[5] = AII 0.05 mcg/kg, 90 min post dose
[6] = AII 0.05 mcg/kg, 90 min post dose, listed as Ex. 11
[7] = AII 0.05 mcg/kg, 120 min post dose
[8] = AII 0.05 mcg/kg, 120 min post dose, listed as Ex. 11
[9] = AII 0.05 mcg/kg, 180 min post dose
[10] = AII 0.05 mcg/kg, 180 min post dose, listed as Ex. 11
[11] = AII 0.05 mcg/kg, 240 min post dose
[12] = AII 0.05 mcg/kg, 240 min post dose, listed as Ex. 11
[13] = AII 0.05 mcg/kg, 300 min post dose
[14] = AII 0.05 mcg/kg, 300 min post dose, listed as Ex. 11
[15] = AII 0.1 mcg/kg, 30 min post dose
[16] = AII 0.1 mcg/kg, 30 min post dose, listed as Ex. 11
[17] = AII 0.1 mcg/kg, 60 min post dose
[18] = AII 0.1 mcg/kg, 90 min post dose
[19] = AII 0.1 mcg/kg, 90 min post dose, listed as Ex. 11
[20] = AII 0.1 mcg/kg, 120 min post dose
[21] = AII 0.1 mcg/kg, 120 min post dose, listed as Ex. 11
[22] = AII 0.1 mcg/kg, 180 min post dose
[23] = AII 0.1 mcg/kg, 240 min post dose
[24] = AII 0.1 mcg/kg, 240 min post dose, listed as Ex. 11
[25] = AII 0.1 mcg/kg, 300 min post dose
[26] = AII 0.1 mcg/kg, 300 min post dose, listed as Ex. 11

CCCCc1nc2cc(-c3ccco3)nn2c(=O)n1Cc1ccc(-c2ccccc2-c2nnn[nH]2)cc1 [Example 11, 2-Butyl-7-(2-furanyl)-3-[[2'-(1H-tetrazol-5-yl)[1,1'-biphenyl]-4-yl]methyl]pyrazolo[1,5-a]-1,3,5-triazin-4(3H)-one]
Change [1]: 0 | Response After AII [1]: 200 | Response After AII [2]: 205 | Control Before AII [2]: 200 and 205 | % Inhibition [1]: 100% | Average Change [1]: 0 | Change [3]: 13 and 5 | Response After AII [3]: 198 and 200 | Control Before AII [3]: 185 and 195 | % Inhibition [4]: 76% | Average Change [4]: 9 | Response After AII [5]: 200 | Change [6]: 10 and 15 | Control Before AII [6]: 190 and 185 | % Inhibition [5]: 67% | Average Change [5]: 12.5 | Response After AII [7]: 195 | Control Before AII [7]: 185 | Change [8]: 20 and 10 | Response After AII [8]: 205 | % Inhibition [7]: 60% | Average Change [7]: 15 | Response After AII [9]: 195 | Control Before AII [9]: 185 | Change [10]: 10 and 20 | Response After AII [10]: 205 | % Inhibition [9]: 60% | Average Change [9]: 15 | Control Before AII [11]: 185 | Change [12]: 25 and 15 | Response After AII [12]: 210 and 200 | % Inhibition [11]: 47% | Average Change [11]: 20 | Control Before AII [13]: 185 | Change [14]: 30 and 20 | Response After AII [14]: 215 and 205 | % Inhibition [13]: 33% | Average Change [13]: 25 | Response After AII [15]: 192 | Change [16]: 2 and 0 | Response After AII [16]: 205 | Control Before AII [16]: 190 and 205 | % Inhibition [15]: 98% | Average Change [15]: 1 | Change [17]: 10 | Response After AII [17]: 205 | Control Before AII [17]: 195 | % Inhibition [17]: 79% | Average Change [17]: 10 | Response After AII [18]: 210 | Control Before AII [18]: 190 | Change [19]: 20 and 15 | Response After AII [19]: 205 | % Inhibition [18]: 63% | Average Change [18]: 17.5 | Response After AII [20]: 200 | Control Before AII [20]: 185 | Change [21]: 20 and 15 | Response After AII [21]: 205 | % Inhibition [20]: 63% | Average Change [20]: 17.5 | Change [22]: 25 | Response After AII [22]: 210 | Control Before AII [22]: 185 | % Inhibition [22]: 47% | Average Change [22]: 25 | Response After AII [23]: 210 | Control Before AII [23]: 185 | Change [24]: 30 and 25 | Response After AII [24]: 205 | Control Before AII [24]: 175 | % Inhibition [23]: 42% | Average Change [23]: 27.5 | Response After AII [25]: 210 | Control Before AII [25]: 185 | Change [26]: 25 and 30 | Response After AII [26]: 215 | % Inhibition [25]: 42% | Average Change [25]: 27.5
